Measured values from article PMC6631223, “Chain-Branched Polyhydroxylated Octahydro-1H-Indoles as Potential Leads against Lysosomal Storage Diseases” (Pharmaceuticals, 2019).
Marks after values point to notes of the source that are not given here.

Key:
β-Glucosidase (almond) = assay: Glycosidase inhibition: β-glucosidase (almond); assay type: biochemical; conditions: 1000 μM
From the text: (§1) The enzymes α-glucosidase (from yeast, rice), β-glucosidase (from almonds, bovine liver), α-galactosidase (from coffee beans), β-galactosidase (from bovine liver), α-mannosidase (from jack beans), β-mannosidase (from snails), α-L-fucosidase (from bovine kidney), α-L-rhamnosidase (from Penicillium decumbens), β-glucuronidases (from Escherichia coli), α,α-trehalase (from porcine kidney), amyloglucosidase (from Aspergillus niger), p-nitrophenyl glycosides, and various disaccharides were purchased from Sigma-Aldrich Co. Brush border membranes were prepared from the rat small intestine according to the method of Kessler et al., and were assayed at pH 6.8 for rat intestinal maltase using maltose. For rat intestinal glucosidases and porcine kidney trehalase activities, the reaction mixture (0.2 mL) contained 25 mM substrate and the appropriate amount of enzyme, and the incubations were performed for 10 min at 37 °C. The reaction was stopped by heating at 100 °C for 3 min. After centrifugation (600 g; 10 min), 0.035 mL of the resulting reaction mixture were added to 2.1 mL of the Glucose CII-test Wako (Wako Pure Chemical Ind., Osaka, Japan). The absorbance at 505 nm was measured to determine the amount of the released D-glucose. Other glycosidase activities were determined using an appropriate p-nitrophenyl glycoside as substrate at the optimum pH of each enzyme. The reaction mixture (0.2 mL) contained 2 mM of the substrate and the appropriate amount of enzyme. The reaction was stopped by adding 0.4 mL of 400 mM Na2CO3. The released p-nitrophenol was measured spectrometrically at 400 nm.

[1] = biological target: T1, β-Glucosidase (bovine liver) (Bos taurus, UniProt F1MNT6); assay: Glycosidase inhibition: β-glucosidase (bovine liver); assay type: biochemical
T1 sequence (F1MNT6 1-469): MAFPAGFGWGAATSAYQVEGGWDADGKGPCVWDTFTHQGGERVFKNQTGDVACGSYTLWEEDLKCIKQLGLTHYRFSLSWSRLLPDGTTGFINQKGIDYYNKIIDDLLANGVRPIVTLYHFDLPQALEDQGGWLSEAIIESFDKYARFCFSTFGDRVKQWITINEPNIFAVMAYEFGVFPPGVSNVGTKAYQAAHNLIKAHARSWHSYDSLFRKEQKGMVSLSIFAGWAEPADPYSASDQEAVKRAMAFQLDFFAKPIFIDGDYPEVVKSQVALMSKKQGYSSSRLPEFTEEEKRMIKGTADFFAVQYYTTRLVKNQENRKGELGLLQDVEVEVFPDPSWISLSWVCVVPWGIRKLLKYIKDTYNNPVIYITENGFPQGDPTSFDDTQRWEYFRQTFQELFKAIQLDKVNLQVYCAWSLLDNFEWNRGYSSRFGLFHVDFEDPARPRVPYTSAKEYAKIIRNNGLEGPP
From the text: as §1, with “After centrifugation (600 g; 10 min), 0.035 mL of the resulting reaction mixture were added to 2.1 mL of the Glucose CII-test Wako (Wako Pure Chemical Ind., Osaka, Japan).” left out, “The reaction mixture (0.2 mL) contained 2 mM of the substrate and the appropriate amount of enzyme. The reaction was stopped by adding 0.4 mL of 400 mM Na2CO3.” left out

| SMILES | inhibition % at 1000 μM (β-Glucosidase (almond)) | inhibition at 1000 µM [1] |
| --- | --- | --- |
| CC[C@@H]1CN[C@H]2C[C@@H](O)[C@H](O)[C@@H](O)[C@H]12 [Compound 10, (3S,3aR,4S,5S,6R,7aS)-3-Ethyloctahydro-1H-indole-4,5,6-triol] | 12% ^a | 0% |
| CC[C@H]1CN[C@H]2C[C@@H](O)[C@H](O)[C@@H](O)[C@H]12 [Compound 13, (3R,3aR,4S,5S,6R,7aS)-3-ethyloctahydro-1H-indole-4,5,6-triol] | 5% ^a | 21.7% |
